Entries after “also recorded” stand apart in the source; their conditions may differ. One block for each molecule: values may come before it.
Key:
[1] = test system: enzyme including the amino acid sequence of SEQ ID NO: 1; test: Glucose transfer to steviol glycoside by purified recombinant enzyme (HPLC); assay type: biochemical, Lactobacillus mali; conditions: 6% substrate, 6% white sugar, 50 mM sodium acetate buffer pH 5.0, 40 °C, 24 hours, purified enzyme of Example 5-1
Description: A polynucleotide encoding the amino acid sequence of SEQ ID NO: 1 was prepared by a polynucleotide synthesis method (Bioneer Corp.), and the obtained polynucleotide was inserted into a pBT7-N-His vector, which was then transformed into E. coli BL21(DE3). The transformed E. coli was smeared on a plate medium containing ampicillin to obtain a recombinant strain (microorganism).
The recombinant E. coli strain was seeded in 5 mL of an LB medium containing ampicillin, and seed culture was carried out at 37° C. until optical density at 600 nm reached 2.0. The seed culture broth was added to 500 mL of an LB medium containing ampicillin, and main culture was carried out. Thereafter, when optical density at 600 nm reached 0.4, 0.1 mM isopropyl β-D-thiogalactopyranoside (IPTG) was added to induce mass-expression of the enzyme including the amino acid sequence of SEQ ID NO: 1. During the process, an agitation speed was 180 rpm, and culture temperature was maintained at 37° C. After IPTG addition, the agitation speed was 120 rpm, and culture temperature was maintained at 16° C.
The culture broth was centrifuged at 10,000×g at 4° C. for 20 minutes to obtain a cell pellet. A 50 mM tris-HCl buffer solution was added to the pellet, and re-suspended as a cell solution. The cell solution was sonicated using a sonicator. […]

[2] = test system: Lactobacillus mali crude enzyme solution including the enzyme including the amino acid sequence of SEQ ID NO: 1; test: Glucose transfer to steviol glycoside by crude enzyme solution (HPLC); assay type: biochemical; conditions: 6% substrate, 6% white sugar, 50 mM sodium acetate buffer pH 5.0, 40 °C, 24 hours
Description: 6% Rebaudioside A (purecircle) or 6% Stevioside (carbosynth), and 6% white sugar (CJ CheilJedang) were dissolved in a 50 mM sodium acetate buffer (pH 5.0), and then the Lactobacillus mali crude enzyme solution including the enzyme including the amino acid sequence of SEQ ID NO: 1 was added thereto, and allowed to react at 40° C. for 24 hours. Thereafter, whether glucosylated Rebaudioside A or glucosylated Stevioside was produced was confirmed by HPLC, and the results are shown in FIGS. 2 to 5. Meanwhile, HPLC analysis conditions are as follows:
FIGS. 2 and 4 show HPLC analysis results before the enzyme reaction, and FIGS. 3 and 5 show HPLC analysis results after the enzyme reaction.

[3] = assay type: physicochemical
Description: The solubility of steviol glycoside and glucosylated steviol glycoside was measured.
Specifically, the solubility of Rebaudioside A (RA), Stevioside (STV), glucosylated Rebaudioside A (RA-Glu) of Example 4, and glucosylated Stevioside (STV-Glu) of Example 4 was measured, respectively.
Each 6 g of Rebaudioside A, Stevioside, glucosylated Rebaudioside A, and glucosylated Stevioside was mixed with 10 mL, and then dissolved by sonication at 50° C. for 60 minutes. The resultant was incubated for 1 week in a water bath at 5° C., 15° C., 25° C., 35° C., 45° C., or 55° C. Thereafter, the resulting solution was centrifuged at 12,000 rpm for 10 minutes, and 1 mL of the supernatant was collected and dried in an oven at 105° C. to measure the solubility, which is shown in Table 4.

[4] = Panel evaluation of actual sweetness and quality of sweetness; conditions: for Actual Sweetness / Evaluation of Quality of Sweetness: dissolved in water, provided to panels
Description: The known material (i.e., α-(1,4) glucosylated Rebaudioside A) and the α-(1,6) glucosylated Rebaudioside A of Example 4 were independently dissolved in water and provided to panels for evaluation of actual sweetness and quality of sweetness.

[5] = Sugar hydrolysis activity by reducing sugar determination method (DNS method); assay type: biochemical; conditions: 200 mM sugar solution, 40 °C, 10 minutes
Description: To confirm the presence of the desired enzyme, sugar hydrolysis activity of each fraction was examined by a reducing sugar determination method (DNS method).
A 200 mM sugar solution and each fraction were mixed at a ratio of 1:1 in a 50 mM sodium acetate buffer, and allowed to react in a water bath at 40° C. for 10 minutes, followed by inactivation at 100° C. A DNS reagent was added thereto at a ratio of 1:3, and then mixed and allowed to react at 100° C. for 5 minutes, and then DNS reaction was immediately stopped on ice. Thereafter, optical density (OD) of the DNS reagent was measured at 575 nm, and the activity was confirmed from a constructed fructose standard curve. At this time, 1 unit is defined by the amount (mL) of an enzyme that produces 1 μmole of fructose per 1 minute.

Molecule: C=C1C[C@@]23CC[C@H]4[C@@](C)(CCC[C@@]4(C)C(=O)O[C@@H]4O[C@H](CO)[C@@H](O)[C@H](O)[C@H]4O)[C@@H]2CC[C@]1(O[C@@H]1O[C@H](CO)[C@@H](O)[C@H](O[C@@H]2O[C@H](CO)[C@@H](O)[C@H](O)[C@H]2O)[C@H]1O[C@@H]1O[C@H](CO)[C@@H](O)[C@H](O)[C@H]1O)C3 [RA, Rebaudioside A, reference compound]
- Conversion rate into glucosylated Rebaudioside A [1]: about 90%
- Conversion rate into glucosylated steviol glycoside [2]: about 90%

- Solubility (%) [3]: ≥ 40 ↑ %
- Solubility as compared with Stevioside and Rebaudioside A, respectively [3]: remarkably increased solubility
Molecule: C=C1C[C@@]23CC[C@H]4[C@@](C)(CCC[C@@]4(C)C(=O)O[C@@H]4O[C@H](CO[C@H]5O[C@H](CO)[C@@H](O)[C@H](O)[C@H]5O)[C@@H](O)[C@H](O)[C@H]4O)[C@@H]2CC[C@]1(O[C@@H]1O[C@H](CO)[C@@H](O)[C@H](O[C@@H]2O[C@H](CO)[C@@H](O)[C@H](O)[C@H]2O)[C@H]1O[C@@H]1O[C@H](CO)[C@@H](O)[C@H](O)[C@H]1O)C3 [RA-Glu, glucosylated Rebaudioside A]
- Actual Sweetness [4]: 26
- Evaluation of Quality of Sweetness ([4]; listed as α-(1,6) glucosylated Rebaudioside A): better quality of sweetness; also recorded: Gives sweet taste in the beginning, has
- Sweetness as compared with the α-(1,4) glucosylated Rebaudioside A ([4]; summary of Table 5): high sweetness

Molecule: C=C1C[C@@]23CC[C@H]4[C@@](C)(CCC[C@@]4(C)C(=O)O[C@@H]4O[C@H](CO)[C@@H](O)[C@H](O)[C@H]4O)[C@@H]2CC[C@]1(O[C@@H]1O[C@H](CO)[C@@H](O)[C@H](O)[C@H]1O[C@@H]1O[C@H](CO)[C@@H](O)[C@H](O)[C@H]1O)C3 [STV, Stevioside, reference compound]
- Conversion rate into glucosylated steviol glycoside [2]: about 90%

- Solubility (%) [3]: ≥ 40 ↑ %
- Solubility as compared with Stevioside and Rebaudioside A, respectively [3]: remarkably increased solubility
Molecule: C=C1C[C@@]23CC[C@H]4[C@@](C)(CCC[C@@]4(C)C(=O)O[C@@H]4O[C@H](CO[C@H]5O[C@H](CO)[C@@H](O)[C@H](O)[C@H]5O)[C@@H](O)[C@H](O)[C@H]4O)[C@@H]2CC[C@]1(O[C@@H]1O[C@H](CO)[C@@H](O)[C@H](O)[C@H]1O[C@@H]1O[C@H](CO)[C@@H](O)[C@H](O)[C@H]1O)C3 [STV-Glu, glucosylated Stevioside]

Molecule: α-(1,4) glucosylated Rebaudioside A [reference compound]
- Actual Sweetness [4]: 19
- Evaluation of Quality of Sweetness [4]: Bitter taste is stronger than sweet taste,

B1: 75 kDa protein of Fraction No. 2: 75 kDa protein purified from Lactobacillus mali culture, identified by LC-MS as amino acid sequence SEQ ID NO: 1; glucosyltransferase (protein, listed as Lactobacillus mali)
chain: MDQMVLETQQWLNKTYGGVSGFGSVTEDGLTGWGTVYGLTRALQHELGITGLVNNFGPTSKQKFNNIAKTIVVGYTGNIAYIIQGGFWCKGITPGEFDGKFSADTASAVTTMKTKAGLADTSSSVDGNFMAALLNMSSFDLLTGGDSKVREMQQQLNHDYLAYTGILPCDGIYQRDTNSALIYALQAEEKISTSVATGAYGATTKKDTPTVKEGTTNNFVRILQWGLYVNNKAYTGAFDGVYDSAVVAAVKEFEETMALDSTDGTSAGVDIFMSLLTSAGNPDRSAIACDTSYQLNATRVATLKNAGYSIVGRYLTGTVGSGTSERAKNLTTDEITAITTGGLKIFPIYQDGASDKEAYFTAAQGKTDGTKAVYAAQDLGFKEGVVIYFAVDADIQAGDIAGSAKVYFEALYDIVTSYGYEVGIYGTRNVSATIISAGLATKAFISDMSTGYSGNLGYSIPDEWAFDQFSEISIGDFAIDKDATTSARETATGSFGVGGESGYGNAEDLAKINTIIDALSQKKNFSYLSGLKIEKTSKEYEIPGFAVDFYVQVKFEASVSEPGDNVGVVYNVSNGKFESDFTDTIAGVVALSDEINKEDINSALTELSSLINNGQIWVEPVTKGSDAGIALHIKSTFDHTLDSGETIELEYEIIIDEIFHKIEVVPTGVPNTTANDYNSLFPNGIKEFVGFSIVAGLATGGIYYVVTAVGATAAVVTTSILALIALLKNNDTGV
- Sugar hydrolysis activity [5]: had sugar hydrolysis activity

From US12404532B2, “Composition for producing glucosylated steviol glycoside including glucosyltransferase and method of producing glucosylated steviol glycoside using the same” (CJ CHEILJEDANG CORPORATION, priority 2019, dated 2025)
